Tests used:
[1] = tested on: human endothelial cells; experiment: Tubulogenesis (patent tubules) in 3-D fibrin gel; type: cell-based; conditions: 50 μM blebbistatin
Method: Endothelial cells were isolated from human umbilical cord veins by collagenase digestion and cultured in Medium 199 (Gibco) containing 20% human serum, 50 μg/ml endothelial cell growth supplement (BD Biosciences), 100 U/ml penicillin, and 100 μg/ml streptomycin (Hiraoka et al. 1998. Cell, 95(3): 365-377). […]
(Chernousov et al. 1991. J. Biol. Chem., 266(17): 10851-10858; Tomasini-Johansson et al. 2001. J. Biol. Chem., 276(26): 23430-23439; Mao and Schwarzbauer. 2005. Matrix Biol., 24(6): 389-399; and Tomasini-Johansson et al. 2006. Matrix Biol., 25(5): 282-293). […] Cell number in 3-D cultures was determined by hemacytometry after dissolving gels with 2 mg/ml bacterial collagenase (Worthington) while the number of patent tubules was determined in randomly selected cross-sections. Fn matrix assembly and cell morphology were monitored by confocal laser microscopy. To examine cell migration, endothelial cells were embedded in a 100 μl fibrin gel for 2 hours, then placed within a 500 μl gel for 8 days in the presence of Del29, FUD, control IgG, or L8, after which migration from the inner gel was assessed.

[2] = tested on: Human umbilical vein endothelial cells; experiment: Chromatin organization (GFP-H2B, H3K9me3) and histone H3/H4 acetylation; type: cell-based; conditions: 3-D culture, VEGF/HGF-stimulated, blebbistatin or nocodazole
Description: At sites of tissue damage, inflammation or neoplasia, fibrinogen is converted into a 3-D meshwork of fibrin fibrils that serve as a structural support for endothelial cells undergoing neovascularization (Chun et al. 2006. Cell, 125: 577-591; Hiraoka et al. 1998. Cell, 95: 365-377; Schafer and Werner. 2008. Nat. Rev. Mol. Cell Biol., 9: 628-638; Zhou et al. 2008. Genes Dev., 22: 1231-1243). This process can be recapitulated in vitro by embedding serum-supplemented human endothelial cells within a 3-D fibrin gel in the presence of the pro-angiogenic factors, VEGF and HGF. Human umbilical vein endothelial cells were isolated from umbilical cords by perfusion of the umbilical vein with type 3 collagenase (Worthington, Lakewood, N.J.) and cultured in Medium-199 (Invitrogen, Carlsbad, Calif.) with 20% human serum and 50 μg/ml endothelial cell growth supplement (ECGS; BD Biosciences, Franklin Lakes, N.J.). For 3-D culture, endothelial cells were suspended in a solution of thrombin and aprotinin (Sigma, St. Louis, Mo.) and mixed 1:1 with a solution of 6 mg/ml fibrinogen (Calbiochem, Gibbstown, N.J.). Vasculogenesis was triggered by treatment with 100 ng/ml VEGF, 50 ng/ml HGF (Genentech, San Francisco, Calif.). Fibronectin fibrillogenesis was tracked in 3-D by co-culture with human fibronectin (Sigma) labeled with Alexa-594 (Invitrogen).
Yet, multi-lobed nuclei and anomalous nuclear pore complex distributions can be observed in laminopathies, a pleiotropic series of genetic disorders wherein mutations in lamin or emerin impact chromatin organization, histone modifications, and transcriptional activity (Csoka et al., 2004. Aging Cell, 3: 235-243; Dechat et al., 2008. Genes Dev, 22: 832-853; Dillon, 2008. Dev Cell, 15: 182-186; Malhas et al., 2007. J. Cell Biol., 176: 593-603; Mendjan et al., 2006. Mol. Cell, 21: 811-823; Shumaker et al., 2006. Proc. Natl. Acad. Sci. USA, 103: 8703-8708; Tang et al., 2008. J. Cell Sci., 121: 1014-1024). To determine whether VEGF/HGF-dependent changes in nuclear shape similarly affect chromatin structure/function, chromatin packaging was tracked at the single-endothelial cell level by monitoring GFP-tagged histone H2B or pericentromeric constitutive heterochromatin localization. […] heterochromatin localization was visualized by immunostaining for trimethylated lysine 9 of histone H3 (H3K9me3) (Shumaker, supra; Tang, supra).
Histone acetylation can be regulated by chromatin positioning within the nucleus (Finlan et al., 2008. PLoS Genet, 4: e1000039; Somech et al., 2005. J. Cell Sci., 118: 4017-4025). Thus, the acetylation status of histones H3 and H4 was assessed as functional markers of changes in chromatin organization. […]

Cc1ccc2c(c1)C(=O)C1(O)CCN(c3ccccc3)C1=N2 (stereo not drawn) [blebbistatin]
endothelial cell tubulogenesis [1]: blocked completely | chromatin distribution [2]: chromatin condensations at the nuclear periphery with increased interchromatin space | levels of acetylated histones H3 and H4 [2]: decreased levels
